Test results reported in ChEMBL document CHEMBL1255421, “In vitro fungicidal activities of echinocandins against Candida metapsilosis, C. orthopsilosis, and C. parapsilosis evaluated by time-kill studies” (2010).
In brackets after ≈: the same amount, converted by molar mass. Activity calls are given as the source filed them. The calls are words filed in the database; no cut-off is given here. Numbered stars: 1 amine (or outer) side, 2 acyl side, 3 side chain; on linkers, the order of the positions; unused ones are H or OH. Bridge positions count the residues as written; N and C are the ends. Square brackets hold non-standard residues; d marks the D form. Peptide text beside a SMILES is read from it. * marks the point of attachment. pTerphenylCO(4''-OnC5H11) = CCCCCOc1ccc(-c2ccc(-c3ccc(C(=O)*)cc3)cc2)cc1; Orn(4R-OH,5R-OH) = O=C([C@H](C[C@@H](O)[C@@H](O)N[*:3])N[*:1])[*:2]; hTyr(3S-OH,4S-OH) = N[C@H](C(=O)O)[C@H](O)[C@@H](O)c1ccc(O)cc1; Pro(3S-OH,4S-Me) = C[C@H]1CN[C@H](C(=O)O)[C@H]1O; Hyp = O=C(O)[C@@H]1C[C@@H](O)CN1

Assays:
[1] = tested on: Candida metapsilosis; test: Antifungal activity against Candida metapsilosis clinical isolate bloodstream form assessed as time required for 99% reduction in fungal growth at 32 mg/L by time-kill assay; assay type: functional
[2] = tested on: Candida parapsilosis; test: Antifungal activity against Candida parapsilosis clinical isolate bloodstream form assessed as time required for 99.9% reduction in fungal growth at 1 mg/L by time-kill assay; assay type: functional
[3] = tested on: Candida parapsilosis; test: Antifungal activity against Candida parapsilosis clinical isolate bloodstream form assessed as time required for 99% reduction in fungal growth at 16 mg/L by time-kill assay; assay type: functional
[4] = tested on: Candida parapsilosis; test: Antifungal activity against Candida parapsilosis clinical isolate bloodstream form assessed as time required for 90% reduction in fungal growth at 32 mg/L by time-kill assay; assay type: functional
[5] = tested on: Candida parapsilosis; test: Antifungal activity against Candida parapsilosis clinical isolate bloodstream form assessed as time required for 90% reduction in fungal growth at 1 mg/L by time-kill assay; assay type: functional
[6] = tested on: Candida parapsilosis; test: Antifungal activity against Candida parapsilosis clinical isolate bloodstream form assessed as time required for 99.9% reduction in fungal growth at 0.25 mg/L by time-kill assay; assay type: functional
[7] = tested on: Candida orthopsilosis; test: Antifungal activity against Candida orthopsilosis clinical isolate bloodstream form assessed as time required for 99.9% reduction in fungal growth at 1 mg/L by time-kill assay; assay type: functional
[8] = tested on: Candida metapsilosis; test: Antifungal activity against Candida metapsilosis clinical isolate bloodstream form assessed as time required for 99% reduction in fungal growth at 4 mg/L by time-kill assay; assay type: functional
[9] = tested on: Candida orthopsilosis; test: Antifungal activity against Candida orthopsilosis clinical isolate bloodstream form assessed as time required for 99.9% reduction in fungal growth at 0.25 mg/L by time-kill assay; assay type: functional
[10] = tested on: Candida metapsilosis; test: Antifungal activity against Candida metapsilosis clinical isolate bloodstream form assessed as time required for 99.9% reduction in fungal growth at 4 mg/L by time-kill assay; assay type: functional
[11] = tested on: Candida metapsilosis; test: Antifungal activity against Candida metapsilosis clinical isolate bloodstream form assessed as time required for 90% reduction in fungal growth at 32 mg/L by time-kill assay; assay type: functional
[12] = tested on: Candida parapsilosis; test: Antifungal activity against Candida parapsilosis clinical isolate bloodstream form assessed as time required for 99.9% reduction in fungal growth at 32 mg/L by time-kill assay; assay type: functional
[13] = tested on: Candida orthopsilosis; test: Antifungal activity against Candida orthopsilosis clinical isolate bloodstream form assessed as time required for 99% reduction in fungal growth at 0.25 mg/L by time-kill assay; assay type: functional
[14] = tested on: Candida orthopsilosis; test: Fungicidal activity against Candida orthopsilosis isolate CP-131 bloodstream form by CLSI method; assay type: functional; conditions: Lodderomyces orthopsilosis
[15] = tested on: Candida metapsilosis; test: Antifungal activity against Candida metapsilosis clinical isolate bloodstream form assessed as time required for 99.9% reduction in fungal growth at 0.25 mg/L by time-kill assay; assay type: functional
[16] = tested on: Candida orthopsilosis; test: Fungicidal activity against Candida orthopsilosis isolate CP-150 bloodstream form by CLSI method; assay type: functional; conditions: Lodderomyces orthopsilosis
[17] = tested on: Candida orthopsilosis; test: Antifungal activity against Candida orthopsilosis clinical isolate bloodstream form assessed as time required for 50% reduction in fungal growth at 0.25 mg/L by time-kill assay; assay type: functional
[18] = tested on: Candida metapsilosis; test: Antifungal activity against Candida metapsilosis clinical isolate bloodstream form assessed as time required for 99.9% reduction in fungal growth at 1 mg/L by time-kill assay; assay type: functional
[19] = tested on: Candida parapsilosis; test: Antifungal activity against Candida parapsilosis clinical isolate bloodstream form assessed as time required for 50% reduction in fungal growth at 16 mg/L by time-kill assay; assay type: functional
[20] = tested on: Candida parapsilosis; test: Fungicidal activity against Candida parapsilosis isolate CP-302 bloodstream form by CLSI method; assay type: functional; conditions: Lodderomyces parapsilosis
[21] = tested on: Candida orthopsilosis; test: Antifungal activity against Candida orthopsilosis clinical isolate bloodstream form assessed as time required for 99% reduction in fungal growth at 16 mg/L by time-kill assay; assay type: functional
[22] = tested on: Candida metapsilosis; test: Antifungal activity against Candida metapsilosis clinical isolate bloodstream form assessed as time required for 99% reduction in fungal growth at 0.25 mg/L by time-kill assay; assay type: functional
[23] = tested on: Candida orthopsilosis; test: Antifungal activity against Candida orthopsilosis clinical isolate bloodstream form assessed as time required for 99% reduction in fungal growth at 32 mg/L by time-kill assay; assay type: functional
[24] = tested on: Candida parapsilosis; test: Fungicidal activity against Candida parapsilosis ATCC 22019 bloodstream form by CLSI method; assay type: functional; conditions: Lodderomyces parapsilosis
[25] = tested on: Candida orthopsilosis; test: Antifungal activity against Candida orthopsilosis clinical isolate bloodstream form assessed as time required for 99.9% reduction in fungal growth at 32 mg/L by time-kill assay; assay type: functional
[26] = tested on: Candida metapsilosis; test: Antifungal activity against Candida metapsilosis clinical isolate bloodstream form assessed as time required for 99.9% reduction in fungal growth at 16 mg/L by time-kill assay; assay type: functional
[27] = tested on: Candida parapsilosis; test: Antifungal activity against Candida parapsilosis clinical isolate bloodstream form assessed as time required for 99% reduction in fungal growth at 0.25 mg/L by time-kill assay; assay type: functional
[28] = tested on: Candida orthopsilosis; test: Antifungal activity against Candida orthopsilosis clinical isolate bloodstream form assessed as mild induction of fungal death at 0.03 to 32 mg/L after 6 hrs by time-kill assay; assay type: functional, organism-based
[29] = tested on: Candida parapsilosis; test: Fungicidal activity against Candida parapsilosis isolate CP-301 bloodstream form by CLSI method; assay type: functional; conditions: Lodderomyces parapsilosis
[30] = tested on: Candida parapsilosis; test: Antifungal activity against Candida parapsilosis clinical isolate bloodstream form assessed as time required for 50% reduction in fungal growth at 0.25 mg/L by time-kill assay; assay type: functional
[31] = tested on: Candida orthopsilosis; test: Antifungal activity against Candida orthopsilosis clinical isolate bloodstream form assessed as time required for 99% reduction in fungal growth at 4 mg/L by time-kill assay; assay type: functional
[32] = tested on: Candida metapsilosis; test: Antifungal activity against Candida metapsilosis clinical isolate bloodstream form assessed as induction of fungal killing rate at 0.03 to 32 mg/L measured at 6 hrs by time-kill assay; assay type: functional, organism-based
[33] = tested on: Candida metapsilosis; test: Antifungal activity against Candida metapsilosis clinical isolate bloodstream form assessed as time required for 90% reduction in fungal growth at 0.25 mg/L by time-kill assay; assay type: functional
[34] = tested on: Candida orthopsilosis; test: Antifungal activity against Candida orthopsilosis clinical isolate bloodstream form assessed as induction of fungal killing rate at 0.03 to 32 mg/L measured at 6 hrs by time-kill assay; assay type: functional, organism-based
[35] = tested on: Candida parapsilosis; test: Antifungal activity against Candida parapsilosis clinical isolate bloodstream form assessed as time required for 99% reduction in fungal growth at 1 mg/L by time-kill assay; assay type: functional
[36] = tested on: Candida metapsilosis; test: Antifungal activity against Candida metapsilosis clinical isolate bloodstream form assessed as mild induction of fungal death at 0.03 to 32 mg/L after 6 hrs by time-kill assay; assay type: functional, organism-based
[37] = tested on: Candida metapsilosis; test: Fungicidal activity against Candida metapsilosis isolate ATC193 bloodstream form by CLSI method; assay type: functional; conditions: Lodderomyces metapsilosis, isolate ATC-193
[38] = tested on: Candida parapsilosis; test: Antifungal activity against Candida parapsilosis clinical isolate bloodstream form assessed as time required for 90% reduction in fungal growth at 16 mg/L by time-kill assay; assay type: functional
[39] = tested on: Candida orthopsilosis; test: Antifungal activity against Candida orthopsilosis clinical isolate bloodstream form assessed as time required for 99.9% reduction in fungal growth at 4 mg/L by time-kill assay; assay type: functional
[40] = tested on: Candida metapsilosis; test: Antifungal activity against Candida metapsilosis clinical isolate bloodstream form assessed as time required for 90% reduction in fungal growth at 1 mg/L by time-kill assay; assay type: functional
[41] = tested on: Candida orthopsilosis; test: Antifungal activity against Candida orthopsilosis clinical isolate bloodstream form assessed as time required for 50% reduction in fungal growth at 4 mg/L by time-kill assay; assay type: functional
[42] = tested on: Candida metapsilosis; test: Antifungal activity against Candida metapsilosis clinical isolate bloodstream form assessed as time required for 90% reduction in fungal growth at 16 mg/L by time-kill assay; assay type: functional
[43] = tested on: Candida metapsilosis; test: Antifungal activity against Candida metapsilosis clinical isolate bloodstream form assessed as time required for 99% reduction in fungal growth at 1 mg/L by time-kill assay; assay type: functional

Compound: CCCCCOc1ccc(-c2ccc(-c3ccc(C(=O)N[C@H]4C[C@@H](O)[C@@H](O)NC(=O)[C@@H]5[C@@H](O)[C@@H](C)CN5C(=O)[C@H]([C@@H](C)O)NC(=O)[C@H]([C@H](O)[C@@H](O)c5ccc(O)cc5)NC(=O)[C@@H]5C[C@@H](O)CN5C(=O)[C@H]([C@@H](C)O)NC4=O)cc3)cc2)cc1 [ANIDULAFUNGIN] ({pTerphenylCO(4''-OnC5H11)}-[Orn(4R-OH,5R-OH)]T[Hyp][hTyr(3S-OH,4S-OH)]T[Pro(3S-OH,4S-Me)]; lactam 1-C)
- Time [1]: 9.37 h
- Time [2]: inactive
- Time [3]: >48 h
- Time [4]: 13.95 h
- Time [5]: inactive
- Time [6]: inactive
- Time [7]: >48 h
- Time [8]: 15.89 h
- Time [9]: >48 h
- Time [10]: 23.83 h
- Time [11]: 4.69 h
- Time [12]: 41.84 h
- Time [13]: >48 h
- MIC [14]: 0.25 µg/mL (≈ 0.219 µM)
- Time [15]: 77.12 h
- MIC [16]: 0.25 µg/mL (≈ 0.219 µM)
- Time [17]: 17.4 h
- Time [18]: 15.67 h
- Time [19]: 7.84 h
- MIC [20]: 1 µg/mL (≈ 0.877 µM)
- Time [21]: 12.48 h
- Time [22]: 51.41 h
- Time [23]: 9.81 h
- MIC [24]: 1 µg/mL (≈ 0.877 µM)
- Time [25]: 14.72 h
- Time [26]: 15.03 h
- Time [27]: inactive
- Activity [28]: Active
- MIC [29]: 1 µg/mL (≈ 0.877 µM)
- Time [30]: inactive
- Time [31]: 18.17 h
- Activity [32]: inactive
- Time [33]: 25.71 h
- Activity [34]: inactive
- Time [35]: inactive
- Activity [36]: Active
- MIC [37]: 0.03 µg/mL (≈ 0.0263 µM)
- Time [38]: 26.04 h
- Time [39]: 27.25 h
- Time [40]: 5.22 h
- Time [41]: 2.73 h
- Time [42]: 5.01 h
- Time [43]: 10.44 h
